Laboratory results taken from patent US20250241906A1, “ANABOLIC DRUGS STIMULATING TYPE II COLLAGEN PRODUCTION FROM CHONDROCYTES OR THEIR PROGENITORS” (UNIVERSITY OF CENTRAL FLORIDA RESEARCH FOUNDATION, INC., priority 2022, published 2025).

Tests used:
[1] = tested on: cartilage (destabilized meniscus model); details: cited from earlier work
[2] = tested on: NF-κB and JAK2/STAT3 signaling; details: monolayer culture; cited from earlier work
HuPRG4gLuc aggregates = assay: Biochemical assays on HuPRG4gLuc aggregates; assay type: cell-based, human; details: day 22
Experimental: Biochemical assays. As previously described, frozen samples were digested in papain (0.025 mg/mL papain in 50 mM sodium phosphate, 2 mM EDTA, 2 mM cysteine) overnight. Hoechst dye was used to quantify the DNA content of the digest, with calf thymus DNA (Sigma) as the standard. Samples were read on a plate reader (Ex365, Em460 nm, SpectraMax iD5, Molecular Devices). Dimethylmethylene blue (5 ml of 3.2 mg/mL DMMB dissolved in 200 proof ethanol added to 1L of 40 mM glycine, 40 mM NaCl at pH 1.5) colorimetric assay was used to quantify GAG content of the digest with absorbance readings at 525 nm and 595 nm (correction). Hydroxyproline (HDP) content was measured for total collagen quantification. Papain digested samples were acid hydrolyzed overnight (10:1 vol/vol, 6M HCl, 110° C.) and then dried overnight (70° C.). Copper sulfate (0.15M) and NaOH (2.5M) were added and incubated (50° C., 5 minutes). Oxidation occurred through 10-minute incubation with hydrogen peroxide (6% H2O2, 50° C.). Sulfuric acid was added (1.5M H2SO4) prior to reaction with Ehrlich's reagent (10% w/v 4-dimethylamino benzaldehyde in 60% isopropanol, 26% perchloric acid, 14% MΩ water) for a final incubation (70° C., 16 minutes). Absorbance was read at 505 nm (SpectraMax iD5, Molecular Devices) with hydroxyproline standard curve generated using hydroxyproline (Sigma). […]

[3] = target: type II collagen promoter (COL2A1-Gaussia luciferase) in primary human chondrocytes; assay: HuCol2gLuc 3D aggregate type II collagen promoter-driven Gaussia luciferase assay; assay type: cell-based; details: HuCol2gLuc
Experimental: Chondrogenic Culture. Human COL2A1-GLuc or uninfected cells were thawed and seeded in growth media on synoviocyte matrix at 6,000 cells/cm^2 and expanded to 90-100% confluence in physioxia. Cells were trypsinized (0.25% Trypsin/EDTA; Corning), resuspended in growth media (for monolayer culture) or chondrogenic differentiation media for 3D aggregates (93.24% High-Glucose DMEM (Gibco), 1% dexamethasone 10^−5M (Sigma), 1% ITS+premix (Becton-Dickinson), 1% Glutamax (Hyclone), 1% 100 mM Sodium Pyruvate (Hyclone), 1% MEM Non-Essential Amino Acids (Hyclone), 0.26% L-Ascorbic Acid Phosphate 50 mM (Wako), 0.5% Fungizone (Life Technologies) with TGF-β1 (Peprotech) and seeded as described below.
Generation and Maintenance of 3D aggregates. To generate 3D aggregates, cells were seeded at 50,000 cells per well (in 96-well cell repellent u-bottom plates, GreinerBio) and then centrifuged at 500 RCF, 5 min. For the initial drug screen, aggregates were cultured in basal chondrogenic media (1 ng/ml TGF-β1) alone, with DMSO (vehicle control) or 5 μM of the drug compounds from the NCI library (Natural Products V, NCI). For candidate validation and subsequent studies aggregates were cultured in basal chondrogenic media (10 ng/ml TGF-β1) alone, with DMSO (vehicle control) or compounds as indicated in the results. Aggregates were cultured for three weeks in physioxic conditions, culture medium was sampled and replaced three times a week with fresh medium. An OT-2 (Opentrons) python coded robotic pipette, programmed at an aspiration height of 2 mm from the bottom of the wells and aspiration rate of 40 μl/s was utilized for addition of compound, cell feeding, and media sampling for luciferase assay. After three weeks, cell aggregates were either fixed in neutral buffered formalin for histology or medium removed and aggregates frozen dry (−20° C.) for biochemical assays.
(§1) Luciferase Assay. Conditioned culture medium sampled from aggregates in 96-wells (20 μL/well) was assessed using a stabilized Gaussia Luciferase buffer mix (50 µl/well) for a final concentration of 0.09 M MES, 0.15M Ascorbic Acid, and 4.2 μM Coelenterazine in white 96-well plates. Luminescence was measured in a plate reader (25° C., relative light units (RLU), En Vision plate reader). An OT-2 (Opentrons) python coded robotic pipette was utilized for luciferase buffer addition to white plates (GreinerBio).

[4] = target: PRG4 (lubricin) promoter in primary human chondrocytes; assay: HuPRG4gLuc aggregate lubricin promoter-driven Gaussia luciferase assay, TGFβ1 dose response; assay type: cell-based; details: 0-40 ng/mL
Experimental: HuPRG4gLuc reporter cell aggregate culture and TGFβ1 dose response. HuPRG4gLuc reporter chondrocytes were thawed from frozen stocks and seeded onto synoviocyte derived matrix coated flasks to expand to confluence (˜5 days, 37° C., 5% CO2 and 5% O2). Upon confluence, cells were trypsinized (0.25% Trypsin/EDTA, 5 min, 37° C.), neutralized with growth media (DMEM/F12 (Gibco) supplemented with 10% FBS (mesenchymal stromal cell selected and 1% penicillin-streptomycin (Hyclone)), then centrifuged (5 min, 500 RCF, room temperature [RT]). Cells were then resuspended in defined chondrogenic media (DMEM-HG 93.24% (Lonza), 1% 10^−5 M dexamethasone (Sigma), 1% ITS+premix (Becton-Dickinson), 1% Glutamax (Hyclone), 1% 100 mM Sodium Pyruvate (Hyclone), 1% MEM Non-Essential Amino Acids (Hyclone), 0.26% 50 mM L-Ascorbic Acid Phosphate (Wako), 0.5% Fungizone (Life Technologies)), and seeded (50,000 cells/well) onto a non-adherent 96-well plate (Greiner Bio), then centrifuged to form cell aggregates (5 min, 500 RCF, RT). […] Media containing the secreted Gaussia luciferase was sampled twice a week for luminescence (section 2.3). […]
Luciferase assessment. As previously described, during the 22-day culture period, luminescence was assessed twice a week. […] Luminescence was read on a plate reader (PerkinElmer EnVision 2104 Multilabel Reader.

[5] = target: type II collagen promoter (COL2A1-GLuc) in primary rabbit chondrocytes; assay: COL2A1-GLuc primary rabbit chondrocyte 3D aggregate luciferase assay; assay type: cell-based; details: 0-10 ng/ml
Experimental: Chondrogenic Culture. Rabbit COL2A1-GLuc were thawed and seeded in growth media at 6000 cells/cm^2 and expanded to 90-100% confluence in physioxia. Cells were trypsinized (0.25% Trypsin/EDTA; Corning), resuspended in basal chondrogenic media (93.24% High-Glucose DMEM (Gibco), 1% dexamethasone 10^−5 M (Sigma), 1% ITS+premix (Becton-Dickinson), 1% Glutamax (Hyclone), 1% 100 mM Sodium Pyruvate (Hyclone), 1% MEM Non-Essential Amino Acids (Hyclone), 0.26% L-Ascorbic Acid Phosphate 50 mM (Wako), 0.5% Fungizone (Life Technologies) with TGF-β1 (Peprotech) and seeded as described below.
Generation and Maintenance of 3D Aggregates. To generate 3D aggregates, cells were seeded at 50,000 cells per well (in 96-well cell repellent u-bottom plates, GreinerBio) and then centrifuged at 500 RCF, 5 min. For the TGF-β1 dose response studies, that serve as positive controls for the reporter cells, aggregates were cultured in basal chondrogenic media and different concentrations of TGF-β1 ranging from 0-10 ng/ml. For the DoE studies, aggregates were cultured in basal chondrogenic media (1 ng/ml TGF-β1) as a control or basal media supplemented with vitamins and minerals (Table 3 and Table 5). Plates were cultured for three weeks in physioxia, media was sampled and replaced three times a week with respective medium. An OT-2 (Opentrons) python coded robotic pipette, programmed at an aspiration height of 2 mm from the bottom of the wells and aspiration rate of 40 μl/s was utilized for media preparation, cell feeding, and media sampling for luciferase assay. After three weeks, cell aggregates were either fixed in neutral buffered formalin for histology or medium removed and aggregates frozen dry (−20° C.) for biochemical assays.
as §1, with “Cell” for “Conditioned”, “the seeded” for “aggregates in”, “at” for “mix (50 µl/well) for”, “units,” for “units (RLU),”

In the case of `NCCc1ccc(O)c(O)c1` [dopamine], the “decrease in OARSI score” value [1] is listed as 50% and the “NF-κB and JAK2/STAT3 signaling” value [2] is listed as “inhibition of NF-κB and JAK2/STAT3 signaling”.

In the case of “TGFβ1: transforming growth factor beta 1, known stimulator of chondrogenesis, type II collagen and lubricin [reference compound]”, the “EC50 DNA” value (HuPRG4gLuc aggregates) is reported as 2.8 ng/mL, the “EC50 GAG/DNA” value (HuPRG4gLuc aggregates) is reported as 4.8 ng/mL and the EC50 luminescence ([3]; donor 2, day 7) is reported as 0.142 ng/mL. It also gave an EC50 luminescence ([3]; donor 2, day 21) of 1.868 ng/mL, an EC50 luminescence ([3]; first donor, day 8, 0-100 ng/ml) of 0.780 ng/mL and an EC50 luminescence ([3]; first donor, day 17) of 2.702 ng/mL. The EC50 luminescence ([4]; day 10) was 2.5 ng/mL, the EC50 luminescence ([4]; day 22) was 4.2 ng/mL and the EC50 luminescence ([5]; Day 7) was 0.17 ng/mL. It also gave an EC50 luminescence ([5]; Day 21) of 0.10 ng/mL.
